In data set [1] the target is T1, human oestrogen receptor β (Homo sapiens, UniProt Q92731).
T1 construct: expressed in transfected cells; host or cells: JEG-3 human choriocarcinoma cells
Description: Dual-luciferase reporter assay, full-length ERβ and ERE in JEG-3 cells. The data set is classed as cell-based. As for the experimental part:
Dual-luciferase reporter assays were carried out primarily according to the method described in a previous study. In short, full-length sequences of human oestrogen receptor α and β were amplified by RT-PCR using mRNA from MCF-7 (Supplementary Table 3), and inserted into a pSVSPORT1 (Invitrogen); the resulting constructs were termed pSVhERα and pSVhERβ. A reporter plasmid containing ERE was constructed by inserting four tandem repeats of an ERE of Xenopus laevis vitellogenin A2 into a pGL4.23 vector (Promega), and was termed pGL4-ERE-luc. […] The Renilla LUC control reporter construct pGL4.74-TK was purchased from Promega (Madison, WI). Human choriocarcinoma JEG-3 cells (ATCC No. HTB-36) were obtained from the American Type Culture Collection (ATCC; Manassas, VA) and were cultured in minimal essential medium (MEM, Invitrogen, Carlsbad, CA) containing 2 mM L-glutamine, 0.1 mM minimal essential medium nonessential amino acid solution (Invitrogen/Thermo Fisher Scientific, Grand Island, NY), and 10% fetal calf serum (FCS) at 37 °C in a humidified atmosphere containing 5% CO2. The cells (3 × 10^4 cells per well) were seeded in 24-well plates 24 h before transfection. The cells were transfected with pGL4-ERE-luc (5 ng per well), pGL 4.74-TK (0.2 ng per well) and either pSVhERα (5 ng per well) or pSVhERβ (5 ng per well) using Lipofectamine reagent (Invitrogen). At 24 h after transfection, the compounds in DMSO were added to the cultures at a volume ratio (v/v) of 0.1%. The cells were continuously cultured in medium supplemented with 1% charcoal-stripped FCS for another 24 h and then harvested, and cell extracts were assayed for firefly luciferase activity. The assays were performed in quadruplicate, and the results were expressed as the fold induction of the control after normalization against Renilla luciferase activity. Sigmoidal dose-effect curves were calculated using the GraphPad Prism 4 software. The IC50 values were calculated on the basis of the sigmoidal dose-effect curves. […]

In another data set the test system is female CD-1 mice. Description: Improved anti-uterotrophic assay, daily oral gavage for 10 days beginning on PND 24. Type of data set: in vivo. Conditions: BHPF at 27.8 mg kg^−1 bw d^−1. As for the experimental part: The animals were fed ad libitum with a basic diet from the Laboratory Animal Center of the Academy of Military Medical Sciences (Beijing, China), and drinking water was provided ad libitum. […] The volume of vehicle or chemical solutions administered was adjusted daily based on body weight measured during the dosing period according to the volume-body weight ratio of 5 ml kg^−1 bw.

Data set [2] is described as follows: Serum BHPF levels in mice after drinking-water exposure (GC–MS). Type of data set: in vivo. The settings on record: for concentration at 10 days: female, CD-1, mouse, serum, oral, 124.35 ng l^−1 in drinking water. From the text:
In China, college students usually undergo a physical examination before graduation. The volunteers in this study were senior students who were undergoing a physical examination in Beijing. Fifty male and 50 female healthy volunteers (mean age, 23.5±1.2 years) who habitually used plastic water bottles were randomly recruited to participate in this study in June 2015, after appropriate ethical approval was received from the Human Ethics Committee of the Peking University Peoples' Hospital. Each participant provided informed consent and volunteered to give one 10-ml random sample of blood. Fasting blood was collected at Peking University Hospital Medical Center with vacutainer blood collection device (Chengwu Yongkang Medical Products Ltd., China) between 8 and 9 h. […] The blood was collected directly into plain 10-ml glass vacutainer tubes and spun down 30 min later for serum preparation. The serum samples were stored in glass tubes at −80 °C until analysis. The samples were fortified with 5 ng of surrogate standard BHPF-d7, and the pH was adjusted to 6.5 with ammonium acetate. β-Glucuronidase/arylsulfatase (20 μl; Sigma-Aldrich, St Louis, MO) was added to the samples, and they were incubated at 37 °C for 20 h to allow deglucuronidation. […]
Mice with a maximal difference in body weight of 1 g were selected for the experiments and randomly assigned to either the treatment or control groups. […] The BHPF levels in the cooled boiled waters from Bottle A, Bottle B and the stainless steel electric water heater were determined by GC–MS. No BHPF was detected in the cooled boiled water from the stainless steel electric water heater. […] The relative uterine weight was calculated to evaluate the anti-uterotrophic activity. […] The serum BHPF levels were analysed by GC–MS using the same method as that for human serum. The gene expressions of sprr2a and sprr2b in the uteri were determined by Q-RT-PCR.

Like-named read-outs stand apart in the source and are kept apart here.

T1 sequence (Q92731 whole entry): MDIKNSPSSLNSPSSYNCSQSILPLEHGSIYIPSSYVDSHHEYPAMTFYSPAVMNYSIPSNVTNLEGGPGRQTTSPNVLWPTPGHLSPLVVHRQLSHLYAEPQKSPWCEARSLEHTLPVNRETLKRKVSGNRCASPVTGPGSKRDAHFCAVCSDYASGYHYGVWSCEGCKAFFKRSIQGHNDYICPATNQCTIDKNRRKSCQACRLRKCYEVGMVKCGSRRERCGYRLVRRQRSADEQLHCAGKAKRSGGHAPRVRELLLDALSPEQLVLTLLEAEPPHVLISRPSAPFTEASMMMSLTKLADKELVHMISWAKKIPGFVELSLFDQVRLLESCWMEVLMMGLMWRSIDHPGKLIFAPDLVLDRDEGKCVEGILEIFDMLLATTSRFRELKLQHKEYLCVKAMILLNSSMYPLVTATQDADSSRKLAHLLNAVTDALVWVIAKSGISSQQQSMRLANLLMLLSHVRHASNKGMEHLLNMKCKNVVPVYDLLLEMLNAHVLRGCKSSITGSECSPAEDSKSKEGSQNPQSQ

As to `Oc1ccc(C2(c3ccc(O)cc3)c3ccccc3-c3ccccc32)cc1` [BHPF, 9,9-bis(4-hydroxyphenyl)-fluorene], the IC50 is 75.3 nM in data set [1] (coexisted with 1 × 10^−9 M E2, read-out: IC50, anti-oestrogenic activity) and 75.3 nM in data set [1] (vs 1 nM E2, read-out: IC50 converted to mass concentration (converted)). Moreover, the oestrogenic activity entry in data set [1] (compound alone) was “no oestrogenic activity”. Moreover, in the data set with female CD-1 mice, the “anti-uterotrophic activity compared with FULV” value is “close to that of FULV at 2 mg kg^−1 bw d^−1”. Besides, the “serum BHPF” value in data set [2] (100 ng l^−1 BHPF group, 10 days) was “no serum BHPF was detected”. Moreover, the concentration at 10 days in data set [2] (serum BHPF level (mean), Bottle A group (124.35 ng l^−1 BHPF in water), after enzymatic hydrolysis) was 1.21 ± 1.11 ng/mL; in data set [2] (serum BHPF levels, range, Bottle A group) it was 0.36 to 2.7 ng/mL.

The values are drawn from publication PMC5339874, “Fluorene-9-bisphenol is anti-oestrogenic and may cause adverse pregnancy outcomes in mice” (Nature Communications, 2017).
